# Measured values published in patent US11491132B2, “Methods for treating thrombocytopenia” (Enzychem Lifesciences Corporation, priority 2014, dated 2022).
# How the values were obtained:
# [1] = tested on: splenic nodules, primitive progenitor cells and megakaryocytes; test: Colony forming units in spleen (CFUs) assay in heavily irradiated mice; assay type: in vivo; conditions: PLAG 50 mg/kg/d i.p. or p.o.
# Description: In order to determine the in vivo effect of PLAG on the recovery of hematopoiesis, a CFUs assay is performed in heavily irradiated mice.
# Complement 3 = test: Clinical study: activity of PLAG on Complement 3 in healthy subjects; assay type: in vivo, human
# Description: A clinical study is conducted in Gwandong University MyungJi Hospital Clinical Study Center in Republic of Korea with 27 healthy patients to study immune-modulating effect of PLAG. Volunteers are tested for 30 days in vivo as oral administer (500 mg of PLAG per day) under a legitimate clinical approval. Complement 3 is counted using C3 assay kit. The analysis result is shown in FIG. 7, and change of immunoactivity by the administration of PLAG in healthy subjects is shown in Table 8 (effect of PLAG supplementation on immune function of peripheral blood after 4-wk intervention). As shown in FIG. 7 and Table 8, the majority of those who consume PLAG for a month (twenty-six (26) subjects out of 27 patients) show decreased complement 3 (C3), while the control group, who are treated with soybean oil, show both increase and decrease of C3.
# STAT1 = molecular target: T1, STAT1 (Homo sapiens, UniProt P42224); test: Dephosphorylation of STAT1 in U937 cell lysate, western blot; assay type: cell-based; parameters: endogenous in cells; host or cells: U937; conditions: U937 cells; PLAG 0.01 to 10 μg/ml; 15 min after 10 ng IFN-γ
# T1 sequence (P42224 1-750): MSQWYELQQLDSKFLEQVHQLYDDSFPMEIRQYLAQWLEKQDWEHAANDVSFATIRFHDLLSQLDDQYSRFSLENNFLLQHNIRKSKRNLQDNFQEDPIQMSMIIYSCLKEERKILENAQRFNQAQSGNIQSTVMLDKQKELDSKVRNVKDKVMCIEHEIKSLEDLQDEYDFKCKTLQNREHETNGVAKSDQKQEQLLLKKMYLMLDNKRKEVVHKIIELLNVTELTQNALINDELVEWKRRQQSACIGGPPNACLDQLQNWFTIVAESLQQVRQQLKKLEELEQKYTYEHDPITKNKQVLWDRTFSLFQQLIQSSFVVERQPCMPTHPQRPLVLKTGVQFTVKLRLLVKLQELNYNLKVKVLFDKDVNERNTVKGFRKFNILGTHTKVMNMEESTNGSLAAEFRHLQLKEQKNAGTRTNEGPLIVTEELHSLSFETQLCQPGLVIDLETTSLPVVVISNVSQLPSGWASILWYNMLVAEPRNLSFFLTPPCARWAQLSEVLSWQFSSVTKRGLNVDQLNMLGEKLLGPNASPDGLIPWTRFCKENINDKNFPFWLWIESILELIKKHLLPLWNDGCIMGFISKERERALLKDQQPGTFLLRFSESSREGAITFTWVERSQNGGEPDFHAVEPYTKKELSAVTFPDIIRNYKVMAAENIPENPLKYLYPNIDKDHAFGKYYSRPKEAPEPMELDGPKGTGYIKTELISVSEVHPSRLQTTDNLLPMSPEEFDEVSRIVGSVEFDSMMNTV
# Description: Dephosphorylation of STAT6 is examined using anti-phosphorylated STAT6 in U937, A549, and Jurkat cell lysates treated with PLAG concentration from 0.01 to 10 μg/ml. Phosphorylation of STAT6 is induced by treatment with 10 ng/ml of IL-4. Dephosphorylation of STAT1 is examined in the U937 cell lysate treated with PLAG (0.01 to 10 μg/ml). Phosphorylation of STAT1 is induced by 10 ng of IFN-γ treatment. Dephosphorylation of STAT1 and STAT6 is examined at 15 min after stimulation with IFN-γ and IL-4 respectively, in the PLAG pretreated cells. […] The transcriptional activity of STAT6 is decreased by the dephosphorylation of STAT6. […] No effect of PLAG on STAT1 phosphorylation is observed.
smiles,measurement,setting,value
"CCCCC/C=C\C/C=C\CCCCCCCC(=O)OC(COC(C)=O)COC(=O)CCCCCCCCCCCCCCC (racemic) [PLAG, 1-palmitoyl-2-linoleoyl-3-acetylglycerol]",number of splenic nodules and numbers of primitive progenitor cells and megakaryocytes,[1],marked increase
same,decrease of average concentration of C3 in blood,"Complement 3; after administration of PLAG, p value <0.001",about 10 mg/dL
same,subjects showing decreased complement 3 (C3),"Complement 3; out of 27 patients, PLAG for a month",26 subjects
same,STAT1 phosphorylation,STAT1,No effect
